Tests used:
[1] = biological target: Histamine H1 receptor (Homo sapiens, UniProt P35367); experiment: Binding affinity towards human histaminergic (H1) receptor
[2] = biological target: Histamine H3 receptor (Rattus norvegicus) (UniProt Q9QYN8); settings: Brain
[3] = biological target: Sodium-dependent noradrenaline transporter (Homo sapiens, UniProt P23975); experiment: Binding affinity towards human UPTK-NE transporter
[4] = biological target: Histamine H4 receptor (Homo sapiens, UniProt Q9H3N8); experiment: Binding affinity towards human histaminergic (H4) receptor
Chain of Histamine H4 receptor (Q9H3N8 whole entry): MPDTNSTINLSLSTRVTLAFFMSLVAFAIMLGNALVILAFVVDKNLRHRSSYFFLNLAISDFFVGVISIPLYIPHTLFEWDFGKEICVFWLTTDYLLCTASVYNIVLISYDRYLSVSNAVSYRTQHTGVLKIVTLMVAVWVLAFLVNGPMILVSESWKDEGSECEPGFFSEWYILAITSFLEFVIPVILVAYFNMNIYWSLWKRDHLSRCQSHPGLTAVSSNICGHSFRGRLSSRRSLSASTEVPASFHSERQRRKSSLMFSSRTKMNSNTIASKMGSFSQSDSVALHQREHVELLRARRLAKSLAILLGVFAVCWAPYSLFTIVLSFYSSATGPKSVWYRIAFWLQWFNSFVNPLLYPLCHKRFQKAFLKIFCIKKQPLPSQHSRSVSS

[5] = biological target: T1, D(4) dopamine receptor (Homo sapiens, UniProt P21917); experiment: Binding affinity towards human D4.2 receptor
T1 sequence (P21917 whole entry): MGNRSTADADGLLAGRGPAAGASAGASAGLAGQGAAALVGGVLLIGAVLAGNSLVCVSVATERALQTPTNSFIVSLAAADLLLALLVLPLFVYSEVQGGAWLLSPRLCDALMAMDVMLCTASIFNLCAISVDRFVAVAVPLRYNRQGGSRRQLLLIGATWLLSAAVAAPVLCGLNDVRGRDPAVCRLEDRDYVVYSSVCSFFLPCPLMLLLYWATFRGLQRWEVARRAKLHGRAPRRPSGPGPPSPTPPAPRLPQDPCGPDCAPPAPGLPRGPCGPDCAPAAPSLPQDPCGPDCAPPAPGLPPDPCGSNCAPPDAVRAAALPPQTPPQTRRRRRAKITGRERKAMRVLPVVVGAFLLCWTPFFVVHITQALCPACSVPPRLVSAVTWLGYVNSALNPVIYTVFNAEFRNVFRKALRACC

[6] = biological target: T2, Alpha-2C adrenergic receptor (Homo sapiens, UniProt P18825); experiment: Binding affinity towards human Alpha-2C adrenergic receptor
T2 sequence (P18825 whole entry): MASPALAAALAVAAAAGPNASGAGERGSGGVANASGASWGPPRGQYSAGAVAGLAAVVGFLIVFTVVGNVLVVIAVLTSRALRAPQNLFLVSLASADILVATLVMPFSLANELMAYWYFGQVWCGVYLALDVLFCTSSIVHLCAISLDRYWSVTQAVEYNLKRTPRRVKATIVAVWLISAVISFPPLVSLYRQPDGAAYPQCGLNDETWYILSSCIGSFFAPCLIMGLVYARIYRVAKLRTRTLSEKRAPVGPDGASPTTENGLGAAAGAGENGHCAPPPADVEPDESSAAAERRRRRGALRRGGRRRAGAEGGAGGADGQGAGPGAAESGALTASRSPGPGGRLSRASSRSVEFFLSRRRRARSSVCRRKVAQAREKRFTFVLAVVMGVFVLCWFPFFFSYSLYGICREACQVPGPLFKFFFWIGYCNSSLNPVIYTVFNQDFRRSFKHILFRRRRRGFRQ

[7] = Plasma clearance after oral administration (2.5 mg/kg) in monkey was determined; assay type: ADME, organism-based; settings: cercopithecidae, read-out: Clp (converted)
[8] = organism: Cavia porcellus; experiment: Compound was tested for blocked alpha-methylhistamine-induced inhibition of electrical field-stimulation induced twitch response in guinea pig ileum; assay type: functional; settings: read-out: pA2 (converted)
[9] = biological target: Sodium-dependent dopamine transporter (Homo sapiens, UniProt Q01959); experiment: Binding affinity towards human UPTK-DA transporter
Chain of Sodium-dependent dopamine transporter (Q01959 whole entry): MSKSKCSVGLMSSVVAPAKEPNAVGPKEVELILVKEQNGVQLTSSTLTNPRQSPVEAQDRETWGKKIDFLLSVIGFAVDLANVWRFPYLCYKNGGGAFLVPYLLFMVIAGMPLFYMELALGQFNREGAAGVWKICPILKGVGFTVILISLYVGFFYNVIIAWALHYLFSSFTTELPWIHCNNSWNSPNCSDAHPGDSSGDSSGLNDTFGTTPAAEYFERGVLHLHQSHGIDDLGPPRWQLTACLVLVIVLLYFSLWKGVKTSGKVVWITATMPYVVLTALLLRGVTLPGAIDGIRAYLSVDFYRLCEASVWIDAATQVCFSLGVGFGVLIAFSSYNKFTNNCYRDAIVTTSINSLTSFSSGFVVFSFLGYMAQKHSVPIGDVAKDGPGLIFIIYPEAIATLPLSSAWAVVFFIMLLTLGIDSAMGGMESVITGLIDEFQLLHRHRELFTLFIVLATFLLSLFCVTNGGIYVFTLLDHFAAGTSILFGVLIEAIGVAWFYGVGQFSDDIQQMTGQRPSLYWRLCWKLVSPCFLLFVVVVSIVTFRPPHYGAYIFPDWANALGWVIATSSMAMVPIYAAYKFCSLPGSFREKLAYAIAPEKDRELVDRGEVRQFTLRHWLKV

[10] = biological target: T3, Muscarinic acetylcholine receptor M2 (Homo sapiens, UniProt P08172); experiment: Binding affinity towards human muscarinic M2 receptor
T3 sequence (P08172 whole entry): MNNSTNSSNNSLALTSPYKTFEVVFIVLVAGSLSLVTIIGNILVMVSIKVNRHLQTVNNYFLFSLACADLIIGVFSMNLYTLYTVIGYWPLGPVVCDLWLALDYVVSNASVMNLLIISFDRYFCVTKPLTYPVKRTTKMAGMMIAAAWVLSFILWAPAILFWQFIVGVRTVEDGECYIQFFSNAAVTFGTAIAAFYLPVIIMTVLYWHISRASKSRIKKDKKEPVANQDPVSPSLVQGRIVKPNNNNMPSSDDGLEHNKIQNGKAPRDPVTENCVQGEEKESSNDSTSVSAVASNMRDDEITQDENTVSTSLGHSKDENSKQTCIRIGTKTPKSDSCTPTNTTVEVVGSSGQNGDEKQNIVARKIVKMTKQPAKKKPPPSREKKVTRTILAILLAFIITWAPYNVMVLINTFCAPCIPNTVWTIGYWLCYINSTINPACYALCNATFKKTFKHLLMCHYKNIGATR

[11] = biological target: Muscarinic acetylcholine receptor M3 (Homo sapiens, UniProt P20309); experiment: Binding affinity towards human muscarinic M3 receptor
Chain of Muscarinic acetylcholine receptor M3 (P20309 whole entry): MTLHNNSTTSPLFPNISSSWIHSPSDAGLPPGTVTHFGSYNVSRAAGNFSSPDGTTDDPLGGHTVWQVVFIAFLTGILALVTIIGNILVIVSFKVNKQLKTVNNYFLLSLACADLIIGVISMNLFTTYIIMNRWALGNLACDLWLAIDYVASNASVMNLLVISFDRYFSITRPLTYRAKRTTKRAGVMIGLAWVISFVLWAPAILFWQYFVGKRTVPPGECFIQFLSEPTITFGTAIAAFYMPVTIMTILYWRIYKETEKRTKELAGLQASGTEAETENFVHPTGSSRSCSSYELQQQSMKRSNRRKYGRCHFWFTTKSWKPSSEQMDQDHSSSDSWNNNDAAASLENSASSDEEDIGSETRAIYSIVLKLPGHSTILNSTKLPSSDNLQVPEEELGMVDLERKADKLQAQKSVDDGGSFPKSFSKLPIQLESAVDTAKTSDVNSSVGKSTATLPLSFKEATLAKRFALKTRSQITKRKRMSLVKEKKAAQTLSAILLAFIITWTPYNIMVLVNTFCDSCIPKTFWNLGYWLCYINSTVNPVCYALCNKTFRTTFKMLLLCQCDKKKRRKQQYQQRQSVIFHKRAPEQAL

[12] = Half life period after oral administration (2.5 mg/kg) in monkey was determined; assay type: ADME, organism-based; settings: cercopithecidae, in vivo
[13] = The peak blood concentration after 5 hr administration (2.5 mg/kg) in dog was determined; assay type: ADME, organism-based, Canis lupus familiaris; set-up: dose 2.5 mg/kg
[14] = Volume distribution after oral administration (2.5 mg/kg) in monkey was determined; assay type: ADME, organism-based; settings: cercopithecidae, in vivo
[15] = biological target: T4, Muscarinic acetylcholine receptor M1 (Homo sapiens, UniProt P11229); experiment: Binding affinity towards human muscarinic M1 receptor
T4 sequence (P11229 whole entry): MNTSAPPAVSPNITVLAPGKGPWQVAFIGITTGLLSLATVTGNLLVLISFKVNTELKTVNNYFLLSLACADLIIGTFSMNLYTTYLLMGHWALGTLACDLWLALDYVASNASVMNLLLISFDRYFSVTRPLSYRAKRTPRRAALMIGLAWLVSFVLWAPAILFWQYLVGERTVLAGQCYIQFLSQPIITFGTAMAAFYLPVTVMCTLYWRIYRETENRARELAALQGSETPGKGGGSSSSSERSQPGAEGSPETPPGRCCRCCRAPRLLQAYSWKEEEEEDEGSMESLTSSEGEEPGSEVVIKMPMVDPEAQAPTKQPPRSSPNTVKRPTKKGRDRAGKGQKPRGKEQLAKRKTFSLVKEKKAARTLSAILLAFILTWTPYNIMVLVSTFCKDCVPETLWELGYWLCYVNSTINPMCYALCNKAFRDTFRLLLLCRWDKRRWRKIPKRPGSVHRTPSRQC

[16] = biological target: Histamine H2 receptor (Homo sapiens, UniProt P25021); experiment: Binding affinity towards human histaminergic (H2) receptor
Chain of Histamine H2 receptor (P25021 whole entry): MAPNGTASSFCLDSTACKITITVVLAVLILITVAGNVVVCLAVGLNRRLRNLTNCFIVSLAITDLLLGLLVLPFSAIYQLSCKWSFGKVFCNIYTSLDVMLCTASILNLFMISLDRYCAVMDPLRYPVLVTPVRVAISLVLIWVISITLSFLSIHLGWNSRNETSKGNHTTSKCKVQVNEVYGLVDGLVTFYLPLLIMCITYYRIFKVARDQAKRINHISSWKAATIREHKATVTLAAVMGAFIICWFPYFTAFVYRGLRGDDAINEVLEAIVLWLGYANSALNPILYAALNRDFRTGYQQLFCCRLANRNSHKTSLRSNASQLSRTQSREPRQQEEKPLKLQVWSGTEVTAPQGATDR

[17] = biological target: T5, Histamine H3 receptor (Homo sapiens, UniProt Q9Y5N1); experiment: Binding affinity for human recombinant H3 receptor
T5 sequence (Q9Y5N1 whole entry): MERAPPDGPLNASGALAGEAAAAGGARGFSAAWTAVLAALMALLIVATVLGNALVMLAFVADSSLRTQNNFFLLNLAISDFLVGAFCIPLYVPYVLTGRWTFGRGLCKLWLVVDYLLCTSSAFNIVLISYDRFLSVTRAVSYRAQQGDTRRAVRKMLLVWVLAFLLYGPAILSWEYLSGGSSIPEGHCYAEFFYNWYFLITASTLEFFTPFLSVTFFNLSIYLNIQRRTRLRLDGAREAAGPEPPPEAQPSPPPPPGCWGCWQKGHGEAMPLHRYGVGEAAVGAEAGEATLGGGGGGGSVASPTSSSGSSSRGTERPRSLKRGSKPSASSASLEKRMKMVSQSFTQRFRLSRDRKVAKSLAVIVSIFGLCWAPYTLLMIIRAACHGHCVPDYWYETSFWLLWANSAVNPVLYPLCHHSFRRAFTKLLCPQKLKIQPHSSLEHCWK

[18] = Bioavailability after oral administration (2.5 mg/kg) in monkey was determined; assay type: ADME, organism-based; settings: cercopithecidae, in vivo
[19] = Plasma clearance after oral administration (2.5 mg/kg) in dog was determined; assay type: ADME, organism-based, Canis lupus familiaris; settings: read-out: Clp (converted)
[20] = Half life period after oral administration (2.5 mg/kg) in dog was determined; assay type: ADME, organism-based, Canis lupus familiaris; settings: in vivo
[21] = biological target: Sodium-dependent serotonin transporter (Homo sapiens, UniProt P31645); experiment: Binding affinity towards human UPTK-Serotonin transporter
Chain of Sodium-dependent serotonin transporter (P31645 whole entry): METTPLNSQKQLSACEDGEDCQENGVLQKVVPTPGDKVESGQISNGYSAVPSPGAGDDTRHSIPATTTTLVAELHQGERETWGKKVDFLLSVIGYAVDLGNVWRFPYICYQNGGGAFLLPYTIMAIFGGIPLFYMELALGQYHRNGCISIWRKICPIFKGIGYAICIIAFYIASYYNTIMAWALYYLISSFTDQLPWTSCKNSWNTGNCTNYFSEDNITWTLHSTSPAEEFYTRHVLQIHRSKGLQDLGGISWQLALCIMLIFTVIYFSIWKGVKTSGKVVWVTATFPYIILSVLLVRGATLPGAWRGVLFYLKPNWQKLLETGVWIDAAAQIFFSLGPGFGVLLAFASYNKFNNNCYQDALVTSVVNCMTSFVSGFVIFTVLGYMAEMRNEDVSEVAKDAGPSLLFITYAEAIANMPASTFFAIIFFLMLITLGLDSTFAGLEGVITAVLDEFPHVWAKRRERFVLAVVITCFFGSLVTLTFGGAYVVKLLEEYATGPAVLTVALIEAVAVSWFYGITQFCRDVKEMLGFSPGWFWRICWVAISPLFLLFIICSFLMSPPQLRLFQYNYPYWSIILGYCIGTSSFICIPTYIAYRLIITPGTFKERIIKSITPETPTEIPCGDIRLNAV

[22] = Bioavailability after oral administration (2.5 mg/kg) in dog was determined; assay type: ADME, organism-based, Canis lupus familiaris; settings: in vivo
[23] = biological target: T5, Histamine H3 receptor; experiment: Affinity to bind with human cloned H3 receptor using radioligand binding assay; settings: read-out: pA2 (converted)
[24] = The peak plasma concentration after 5 hr administration (2.5 mg/kg) in monkey was determined; assay type: ADME, organism-based; set-up: dose 2.5 mg/kg; settings: cercopithecidae

Chain of Sodium-dependent noradrenaline transporter (P23975 whole entry): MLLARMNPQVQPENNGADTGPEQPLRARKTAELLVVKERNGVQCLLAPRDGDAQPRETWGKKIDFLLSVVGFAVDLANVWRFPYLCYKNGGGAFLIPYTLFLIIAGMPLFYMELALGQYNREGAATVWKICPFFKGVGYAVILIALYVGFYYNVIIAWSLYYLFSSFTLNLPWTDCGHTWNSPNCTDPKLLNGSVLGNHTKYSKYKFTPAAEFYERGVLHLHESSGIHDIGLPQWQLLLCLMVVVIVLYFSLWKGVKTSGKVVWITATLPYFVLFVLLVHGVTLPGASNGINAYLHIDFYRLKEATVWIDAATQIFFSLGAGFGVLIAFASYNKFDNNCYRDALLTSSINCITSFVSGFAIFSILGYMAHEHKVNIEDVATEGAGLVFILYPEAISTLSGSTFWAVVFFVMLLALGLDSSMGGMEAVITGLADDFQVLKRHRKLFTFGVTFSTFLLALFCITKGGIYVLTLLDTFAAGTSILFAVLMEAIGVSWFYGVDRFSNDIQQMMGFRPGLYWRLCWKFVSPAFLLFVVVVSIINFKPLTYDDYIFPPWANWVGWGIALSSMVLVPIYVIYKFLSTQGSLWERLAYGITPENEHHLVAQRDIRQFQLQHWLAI
Chain of Histamine H1 receptor (P35367 whole entry): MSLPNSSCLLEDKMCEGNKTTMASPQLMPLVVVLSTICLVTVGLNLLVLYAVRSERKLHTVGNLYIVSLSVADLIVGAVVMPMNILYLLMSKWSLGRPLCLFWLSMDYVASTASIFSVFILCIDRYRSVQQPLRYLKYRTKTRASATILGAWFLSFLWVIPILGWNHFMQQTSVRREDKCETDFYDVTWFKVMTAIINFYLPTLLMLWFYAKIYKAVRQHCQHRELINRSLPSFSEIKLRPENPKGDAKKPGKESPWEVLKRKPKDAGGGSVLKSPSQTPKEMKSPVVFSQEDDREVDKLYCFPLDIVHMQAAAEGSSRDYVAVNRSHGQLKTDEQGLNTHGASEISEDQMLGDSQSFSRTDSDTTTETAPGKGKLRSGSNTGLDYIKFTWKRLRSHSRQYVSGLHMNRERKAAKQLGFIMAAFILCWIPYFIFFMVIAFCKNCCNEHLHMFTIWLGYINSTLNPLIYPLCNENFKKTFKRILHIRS
Chain of Histamine H3 receptor (Rattus norvegicus) (Q9QYN8 whole entry): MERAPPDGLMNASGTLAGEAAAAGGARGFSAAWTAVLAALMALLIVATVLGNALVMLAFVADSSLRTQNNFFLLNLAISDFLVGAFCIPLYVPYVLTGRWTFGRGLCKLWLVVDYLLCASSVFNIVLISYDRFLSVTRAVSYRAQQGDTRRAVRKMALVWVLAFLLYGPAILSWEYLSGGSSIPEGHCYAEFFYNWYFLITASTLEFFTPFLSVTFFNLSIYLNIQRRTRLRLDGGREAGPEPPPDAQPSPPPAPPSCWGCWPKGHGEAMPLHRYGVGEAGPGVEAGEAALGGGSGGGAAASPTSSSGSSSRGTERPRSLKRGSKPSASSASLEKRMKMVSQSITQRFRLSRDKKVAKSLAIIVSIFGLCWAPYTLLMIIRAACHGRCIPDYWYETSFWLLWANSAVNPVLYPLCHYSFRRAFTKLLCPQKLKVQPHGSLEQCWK

C[C@H]1CC[C@H](C)N1CCCOc1ccc(-c2ccc(C(=O)N3CCOCC3)cc2)cc1 [A-349,821]
Ki [1]: 2.34 µM | pKb [2]: 9.23 | Ki [3]: 9.77 µM | Ki [4]: 10 µM | Ki [5]: 9.77 µM | Ki [6]: 1.62 µM | CL/F [7]: 1 L/h/kg | Kb [8]: 0.000339 µM | Ki [9]: 4.9 µM | Ki [10]: 0.933 µM | Ki [11]: 1.66 µM | half-life [12]: 5.3 h | Cmax [13]: 0.31 µg/mL | Vbeta [14]: 7.5 L/kg | Ki [15]: 1.62 µM | Ki [16]: 10 µM | Ki [17]: 0.00049 µM | bioavailability [18]: 78% | CL/F [19]: 0.6 L/h/kg | half-life [20]: 2.6 h | Ki [21]: 3.55 µM | bioavailability [22]: 33% | Kb [23]: 0.00214 µM | Cmax [24]: 0.17 µg/mL
